Two compounds from ChEMBL document CHEMBL3244031, “Synthesis of octanoyl[8-leucyl]angiotensin II, a lipophilic angiotensin antagonist” (J Med Chem, 1977) can be followed below.

Where a SMILES comes first, the peptide text is derived from it. The star is where a group is joined. Octanoyl = CCCCCCCC(=O)*

The species entered for data set [1] is Cavia porcellus. Nature of the data set: Agonist activity at angiotensin 2 receptor in guinea pig ileum relative to angiotensin-2. In kind it is tissue-based.
For data set [2], the system named is Rattus norvegicus. Nature of the data set: Antihypertensive activity in iv dosed rat assessed as time required for recovery of angiotensin-2-induced increase in blood pressure. Format: functional, organism-based.
A short description of data set [3]: Partition coefficient, log K of the compound in n-BuOH-HOAc-H2O. In kind it is physicochemical.
Data set [4] can be described thus: Antagonist activity at angiotensin 2 receptor in guinea pig ileum assessed as inhibition of angiotensin-2-induced effect after 15 mins. The conditions noted are these: Cavia porcellus, 0.25 h, read-out: pA2 (converted). In kind it is tissue-based.
Data set [5] has as its target T1, Angiotensin II receptor (Rattus norvegicus) (UniProt P29089+P25095+P35351). Briefly: Antagonist activity at angiotensin 2 receptor in rat uterus assessed as time required for recovery of organ's response at 2 X 10^-7 M administered 3 mins prior to angiotensin-2 challenge followed by compound washout at 2 mins post challenge. Format: tissue-based.
Data set [6] concerns the target T1, Angiotensin II receptor (Rattus norvegicus). Briefly: Agonist activity at angiotensin 2 receptor in rat uterus relative to angiotensin-2. Format: tissue-based.
For data set [7], the species on record is Cavia porcellus. Briefly: Antagonist activity at angiotensin 2 receptor in guinea pig ileum assessed as concentration required to reduction of angiotensin-2-induced maximum response by one-half after 15 mins. Format: tissue-based.
Data set [8] relates to Cavia porcellus. Nature of the data set: Antagonist activity at angiotensin 2 receptor in guinea pig ileum assessed as time required for recovery of organ's response at 2 X 10^-7 M administered 3 mins prior to angiotensin-2 challenge followed by compound washout at 2 mins post challenge. In kind it is tissue-based.
Data set [9] addresses T1, Angiotensin II receptor (Rattus norvegicus). Nature of the data set: Antagonist activity at angiotensin 2 receptor in rat uterus assessed as concentration required to reduce maximum response induced by agonist by one-half after 15 mins. Format: tissue-based.
Data set [10] deals with Rattus norvegicus. Briefly: Increase in blood pressure in iv dosed rat relative to angiotensin-2. Format: functional.
In data set [11] the target is T2, Angiotensin II receptor (Rattus norvegicus, UniProt P29089+P25095+P35351).
T2 sequence (P29089 whole entry): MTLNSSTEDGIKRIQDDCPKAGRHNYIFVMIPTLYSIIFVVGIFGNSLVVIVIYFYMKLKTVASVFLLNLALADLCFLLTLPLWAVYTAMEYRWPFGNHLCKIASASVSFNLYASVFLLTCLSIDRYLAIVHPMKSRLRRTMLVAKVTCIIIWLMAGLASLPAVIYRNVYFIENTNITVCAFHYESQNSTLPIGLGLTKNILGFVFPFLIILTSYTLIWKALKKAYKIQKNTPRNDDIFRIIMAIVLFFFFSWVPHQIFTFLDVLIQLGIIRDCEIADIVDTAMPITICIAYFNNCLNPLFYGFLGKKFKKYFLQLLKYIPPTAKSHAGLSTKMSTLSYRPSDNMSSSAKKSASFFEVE
T2 sequence (P25095 whole entry): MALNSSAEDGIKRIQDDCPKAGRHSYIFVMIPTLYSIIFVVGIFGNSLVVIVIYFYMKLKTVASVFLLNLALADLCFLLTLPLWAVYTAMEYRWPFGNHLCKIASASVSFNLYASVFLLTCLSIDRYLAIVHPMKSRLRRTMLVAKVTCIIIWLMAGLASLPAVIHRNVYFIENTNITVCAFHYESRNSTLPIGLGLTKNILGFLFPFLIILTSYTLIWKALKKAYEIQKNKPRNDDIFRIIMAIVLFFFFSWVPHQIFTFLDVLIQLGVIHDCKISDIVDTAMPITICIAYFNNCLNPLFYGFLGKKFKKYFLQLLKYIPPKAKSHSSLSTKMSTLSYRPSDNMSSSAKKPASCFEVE
T2 sequence (P35351 whole entry): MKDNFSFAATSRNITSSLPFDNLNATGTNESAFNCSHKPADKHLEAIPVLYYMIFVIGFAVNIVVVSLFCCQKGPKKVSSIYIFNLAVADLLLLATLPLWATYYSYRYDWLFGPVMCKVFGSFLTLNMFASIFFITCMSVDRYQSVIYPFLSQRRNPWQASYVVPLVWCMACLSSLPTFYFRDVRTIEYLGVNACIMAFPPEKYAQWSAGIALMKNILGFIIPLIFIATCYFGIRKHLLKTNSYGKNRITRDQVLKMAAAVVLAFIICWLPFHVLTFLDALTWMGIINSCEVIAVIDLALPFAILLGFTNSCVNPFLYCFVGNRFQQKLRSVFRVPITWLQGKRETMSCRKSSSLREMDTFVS
Nature of the data set: Antagonist activity at angiotensin 2 receptor in rat uterus assessed as inhibition of angiotensin-2-induced effect after 15 mins. In kind it is tissue-based.

Data set [12] relates to Rattus norvegicus. Nature of the data set: Antihypertensive activity in iv dosed rat assessed as dose required to inhibit angiotensin-2-induced increase in blood pressure. Format: functional.
Data set [13] deals with T1, Angiotensin II receptor (Rattus norvegicus). Nature of the data set: Antagonist activity at angiotensin 2 receptor in rat uterus assessed as time required for recovery of organ's response at 2 X 10^-8 M administered 3 mins prior to angiotensin-2 challenge followed by compound washout at 5 mins post challenge. Format: tissue-based.
For data set [14], the system named is Cavia porcellus. Briefly: Antagonist activity at angiotensin 2 receptor in guinea pig ileum assessed as time required for recovery of organ's response at 2 X 10^-8 M administered 3 mins prior to angiotensin-2 challenge followed by compound washout at 2 mins post challenge. In kind it is tissue-based.

As to `CCCCCCCC(=O)N[C@@H](CC(=O)O)C(=O)N[C@@H](CCCNC(=N)N)C(=O)N[C@H](C(=O)N[C@@H](Cc1ccc(O)cc1)C(=O)N[C@H](C(=O)N[C@@H](Cc1cnc[nH]1)C(=O)N1CCC[C@H]1C(=O)N[C@@H](CC(C)C)C(=O)O)[C@@H](C)CC)C(C)C` (Octanoyl-DRVYIHPL-OH), the Activity was 0.15% in data set [1], 0.21% in [6], 0.1% in data set [10] and 2.3 ug/min.kg in data set [12]. The T1/2 in [2] turned out to be 12 min; in data set [5], 6.6 min; in [8], 1.7 min. This compound also came in with a K in data set [3] of 7. Besides, the Kb in data set [4] was 22.9 nM. In addition, the pAh in data set [7] worked out at 6.2; in data set [9], 6. Moreover, the pA2 (commonly a measure of antagonist potency on a negative log scale) in data set [11] is on record as 8.42.

In the case of H-DRVYIHPL-OH, the Activity in data set [1] was determined as 0.016%; in data set [6] it was 0.025%; in data set [10], 0.09%; in data set [12], 10.2 ug/min.kg. For the same compound, the T1/2 is 12 min in data set [2], 28.1 min in [13] and 3.8 min in [14]. In addition, the K in [3] was found to be 0.18. Further, in data set [4], the Kb is 1.2 nM. The results for the pAh in data set [7] and in [9] were 7.3 and 6.2, respectively. Moreover, in data set [11], the pA2 came out at 8.33.
